Laboratory results as given in patent US11890279B2, “Quinolines that modulate SERCA and their use for treating disease” (Neurodon Corporation, priority 2020, dated 2024).

Tests used:
CSM14.1 cells = assay: ER stress cell survival assay (thapsigargin); type: cell-based; details: for Cell Survival: compound 2 μM, about 15 μM thapsigargin, CSM14.1 cells; for EC50: dose-response;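 on cell survival: survival read as CellTiter-Glo luminescence after overnight incubation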
Protocol: ER Stress Cell Survival Assay
CSM14.1 cells were maintained in Complete Medium at 32° C.; wherein the Complete Medium contained Dulbecco's modified eagle medium (DMEM) with 10% fetal bovine serum (FSB), 1% L-glutamine, 100 IU/mL penicillin, and 100 μg/mL streptomycin. The cells were recovered from cultures by trypsinization and then seeded in 384 well plates (Greiner #781098) at a concentration of 1,000 cells/well in 20 μL of DMEM Assay Medium, wherein the DMEM Assay Medium contained 2% FBS, 100 IU/mL penicillin, and 100 μg/mL streptomycin. Seeding was performed using a MultiDrop Combi reagent broadcaster. The plates were incubated overnight at 32° C.
A test compound was prepared by 2-fold serial dilution in 100% DMSO using a BIOMEK® 2000 liquid handler (Beckman Coulter). A dose-response curve containing 10 concentrations of the test compound was obtained. Using a BIOMEK® FX liquid handler (Beckman Coulter), 2.5 μL of the test compound was transferred from the 100% DMSO serial dilution plate to an intermediate plate containing 47.5 μL of DMEM Assay Medium containing 2% FBS, 100 IU/mL penicillin, and 100 μg/mL streptomycin and mixed. To reduce or eliminate the interference from the compound's precipitation, 6 μL of the diluted compound was immediately transferred to the assay plate to achieve a high compound concentration of 100 μM in 99% DMEM Assay Medium and 1% DMSO. After the assay plates were incubated for 2 hrs, 4 μL of 112.5 μM thapsigargin (TG) (DMSO stock diluted into Assay TC Medium) was dispensed into each testing well with a MultiDrop Combi reagent broadcaster for a final concentration of about 15 μM TG. The tissue culture media (4 μL) containing vehicle only was transferred manually to each control cell using a 16 channel electronic pipette. […] High luminescence indicates cell survival.
Alternatively, a test compound was tested at a single compound concentration (e.g., 2 μM) to determine the effect of the compound on cell survival in comparison with vehicle.

SERCA (SR vesicles) = assay: Activation of SERCA, increase in Vmax; type: biochemical
Protocol: Test compounds were characterized over a range of concentrations using an NADH-linked, enzyme-coupled ATPase assay. Each well contained 2 mg or 7 mg of SR vesicles (optimized for skeletal or cardiac SR, respectively), 50 mM MOPS (pH 7.0), 100 mM KCl, 5 mM MgCl2, 1 mM EGTA, 0.2 mM NADH, 1 mM phosphoenol pyruvate, 5 IU pyruvate kinase, 5 IU lactate dehydrogenase, and 3.5 mg/mL A23187 (a calcium ionophore), and CaCl2 was added to set free [Ca2+] to the specific values. The assay was started upon addition of ATP at a final concentration of 5 mM, and read in a SpectraMax Plus microplate spectrophotometer and the ATPase activities were fitted using the Hill function.

HEK293 cells = assay: Protection against thapsigargin (TG)-induced cell death, HEK293; type: cell-based, human; details: compound 20 μM; thapsigargin 15 μM; 24 hrs
Protocol: (§1) Protection against Thapsigargin (TG)-induced Cell-death. Human embryonic kidney (HEK293) cells were grown in Dulbecco's Modified Eagle's Medium (DMEM) with 10% FBS and 1% antibiotic antimycotic solution (ABAM). Mouse neuroblastoma (N2a) cells were grown in 1:1 DMEM:OPTI-MEM® with 5% FBS and 1% ABAM. All cells were grown in 10% CO2 in a humidified environment of the incubator. Cells grown in 96-well plates were exposed to a test compound (20 μM) for 2 hrs before addition of thapsigargin (15 μM for HEK293 cells and 1 μM for N2a cells) to induce ER stress. After incubation in cell-culture incubator for 24 hrs, ALAMARBLUE® regent (10% v/v) was added to the wells. Fluorescence reading was taken 2 hrs after the addition of the ALAMARBLUE® regent. Cell-viability was calculated as a percentage of relative fluorescence unit (RFU) compared to control.
(§2) The results are summarized in Table 2, where A represents a value greater than 50% cell rescue, B represents a value between 10% to 50% cell rescue, C represents a value between 1% to 10% cell rescue, and D represents a value no greater than 1% cell rescue.

N2a cells [1] = assay: Protection against thapsigargin (TG)-induced cell death, N2a; type: cell-based, mouse; details: compound 20 μM; thapsigargin 1 μM; 24 hrs
Protocol: as §1, §2

N2a cells [2] = assay: Protection against hydrogen peroxide-induced cell death, N2a; type: cell-based, mouse; details: compound 40 μM; hydrogen peroxide 200 μM
Protocol: Protection against Hydrogen Peroxide-induced Cell-death. N2a cells grown in 96-well plates were exposed to a test compound (40 μM) for 2 hrs before addition of hydrogen peroxide (200 μM). After 40 min of incubation with hydrogen peroxide, ALAMARBLUE® regent (10% v/v) was added to the wells. Fluorescence reading was taken 2 hrs after the addition of the ALAMARBLUE® regent. Cell-viability was calculated as a percentage of relative fluorescence unit (RFU) compared to control.
as §2

[3] = Pharmacokinetics in CD-1 mice; type: in vivo, mouse; details: CD-1 mice; for F: 10 mg/kg P.O. vs 2 mg/kg i.v.; for AUC / Cmax / half-life: mouse, plasma, 2 mg/kg i.v. or 10 mg/kg P.O.
Protocol: Pharmacokinetics of test compounds were assessed in CD-1 mice. The compounds were formulated at 1 mg/mL in DMSO/Tween 80/water (10/10/80, vol/vol/vol) and dosed at 2 mg/kg intravenous (i.v.) or 10 mg/kg by oral gavage (P.O.) in triplicate. Blood was drawn at 0.25 h, 0.5 h, 1 hr, 2 hrs, 4 hrs, 8 hrs, and 24 hrs into EDTA containing tubes and plasma was harvested by centrifugation. Plasma (10 μL) containing 50% acetonitrile in water (5 μL) was added to 200 μL of ACN containing an internal standard. The samples were vortexed for 30 s. After centrifugation at […] and 4,000 rpm for 15 min, the supernatant was diluted 3 times with water. Then, 20 μL of diluted supernatant was injected into the LC/MS/MS system for quantitative analysis. The samples were injected onto an Agilent ZORBAX XDB-Phenyl 5μ column (50×2.10 mm). Mobile Phase A was water with 0.1% formic acid. Mobile Phase B was acetonitrile with 0.1% formic acid. Separation was achieved using a gradient of 70% A/30% B to 0% A/100% B over 2.10 min. A Shimadzu LCMS-8050 equipped with a turbo ion spray source was used for all analytical measurements. A positive ion MRM method was developed. Peak areas of the product ion were measured against the peak areas of the internal standard. Data was fit using WinNonLin (Pharsight Corporation, Mountain View, CA).

| Structure (SMILES) | Increase in Vmax at 10 μM (SERCA (SR vesicles)) | N2a Cells (TG-induced) cell rescue (N2a cells [1]) | N2a Cells (H2O2-induced) cell rescue (N2a cells [2]) | also measured |
| --- | --- | --- | --- | --- |
| Cc1ccc2cccc(NC(=O)c3ccc(C(C)(C)C)cc3)c2n1 [Compound A4, 4-(tert-Butyl)-N-(2-methylquinolin-8-yl)benzamide] | B′ (B′ represents an increase between 20 to 50%) |  |  | Cell Survival (CSM14.1 cells): D (D represents a value no greater than 1%); EC50 (CSM14.1 cells): > 100 µM |
| O=C(Nc1cccc2cccnc12)c1cccc(F)c1 [Compound A7, 3-Fluoro-N-(quinolin-8-yl)benzamide] | B′ (B′ represents an increase between 20 to 50%) |  |  |  |
| COc1ccccc1C(=O)Nc1cccc2ccc(C)nc12 [Compound A9, 2-Methoxy-N-(2-methylquinolin-8-yl)benzamide] |  | A (A represents a value greater than 50% cell rescue) | B (B represents a value between 10% to 50% cell rescue) | HEK293 Cells (TG-induced) cell rescue (HEK293 cells): A (A represents a value greater than 50% cell rescue) |
| CCOc1ccccc1C(=O)Nc1cccc2ccc(C)nc12 [Compound A10, 2-Ethoxy-N-(2-methylquinolin-8-yl)benzamide] | C′ (C′ represents an increase no greater than 20%) |  |  |  |
| CC(C)Oc1ccc(C(=O)Nc2cccc3cccnc23)cc1 [Compound A11, 4-Isopropoxy-N-(quinolin-8-yl)benzamide] | A′ (A′ represents an increase greater than 50%) |  |  |  |
| COc1ccc(CCC(=O)Nc2cccc3ccc(C)nc23)cc1 [Compound A23, 3-(4-Methoxyphenyl)-N-(2-methylquinolin-8-yl)propanamide] | A′ (A′ represents an increase greater than 50%) |  |  |  |
| Cc1ccc2cccc(NC(=O)c3cc4ccccc4o3)c2n1 [Compound A27, N-(2-Methylquinolin-8-yl)benzofuran-2-carboxamide] | A′ (A′ represents an increase greater than 50%) |  | A (A represents a value greater than 50% cell rescue) | EC50 (CSM14.1 cells): < 20 µM |
| Cc1ccc2cccc(NC(=O)c3ccc(Br)s3)c2n1 [Compound B1, 5-Bromo-N-(2-methylquinolin-8-yl)thiophene-2-carboxamide] | B′ (B′ represents an increase between 20 to 50%) | B (B represents a value between 10% to 50% cell rescue) | A (A represents a value greater than 50% cell rescue) | F [3]: 2.9%; AUC [3]: 21 ng·h/mL; Cmax [3]: 80 nM; half-life [3]: 42 min |
| Cc1ccc2cccc(NC(=O)c3cc4ccccc4s3)c2n1 [Compound B2, N-(2-Methylquinolin-8-yl)benzo[b]thiophene-2-carboxamide] | A′ (A′ represents an increase greater than 50%) | A (A represents a value greater than 50% cell rescue) | B (B represents a value between 10% to 50% cell rescue) |  |
| CCSc1ccc(C(=O)Nc2cccc3ccc(C)nc23)cc1 [Compound C22, 4-(Ethylthio)-N-(2-methylquinolin-8-yl)benzamide] |  |  |  | Cell Survival (CSM14.1 cells): D (D represents a value no greater than 1%) |
| CC(C)Oc1ccc(C(=O)Nc2cccc3ccc(C(=O)O)nc23)cc1 [Compound E1, 8-(4-Isopropoxybenzamido)quinoline-2-carboxylic Acid] |  | A (A represents a value greater than 50% cell rescue) |  |  |
| CC(C)Oc1cccc(C(=O)Nc2cccc3ccc(C(=O)O)nc23)c1 [Compound E2, 8-(3-Isopropoxybenzamido)quinoline-2-carboxylic acid] |  | A (A represents a value greater than 50% cell rescue) |  |  |
| O=C(O)c1ccc2cccc(NC(=O)c3ccc(Br)s3)c2n1 [Compound E3, 8-(5-Bromothiophene-2-carboxamido)quinoline-2-carboxylic Acid] |  | A (A represents a value greater than 50% cell rescue) |  |  |
| O=C(O)c1ccc2cccc(NC(=O)c3cc4ccccc4s3)c2n1 [Compound E4, 8-(Benzo[b]thiophene-2-carboxamido)quinoline-2-carboxylic Acid] |  | B (B represents a value between 10% to 50% cell rescue) |  |  |
| Cc1cc(C)n(-c2ccc3cccc(NC(=O)c4cccc(OC(C)C)c4)c3n2)n1 [Compound F1, N-(2-(3,5-Dimethyl-1H-pyrazol-1-yl)quinolin-8-yl)-3-isopropoxybenzamide] |  | A (A represents a value greater than 50% cell rescue) |  |  |
| Cc1cc(C)n(-c2ccc3cccc(NC(=O)c4ccc(OC(C)C)cc4)c3n2)n1 [Compound F2, N-(2-(3,5-Dimethyl-1H-pyrazol-1-yl)quinolin-8-yl)-4-isopropoxybenzamide] |  | A (A represents a value greater than 50% cell rescue) |  |  |
| Cc1cc(C)n(-c2ccc3cccc(NC(=O)c4ccc(Br)s4)c3n2)n1 [Compound F3, 5-Bromo-N-(2-(3,5-dimethyl-1H-pyrazol-1-yl)quinolin-8-yl)thiophene-2-carboxamide] |  | A (A represents a value greater than 50% cell rescue) |  |  |
| Cc1cc(C)n(-c2ccc3cccc(NC(=O)c4cc5ccccc5s4)c3n2)n1 [Compound F4, N-(2-(3,5-Dimethyl-1H-pyrazol-1-yl)quinolin-8-yl)benzo[b]thiophene-2-carboxamide] |  | B (B represents a value between 10% to 50% cell rescue) |  |  |
| Cc1ccc2cccc(NC(=O)c3ccc(C)s3)c2n1 [Compound G2, 5-Methyl-N-(2-methylquinolin-8-yl)thiophene-2-carboxamide] | A′ (A′ represents an increase greater than 50%) |  | A (A represents a value greater than 50% cell rescue) | EC50 (CSM14.1 cells): < 20 µM; F [3]: 0.85%; AUC [3]: 4.5 ng·h/mL; Cmax [3]: 20 nM; half-life [3]: 33.6 min |
| Cc1ccc2cccc(NC(=O)c3sc(Br)cc3Br)c2n1 [Compound G6, 3,5-Dibromo-N-(2-methylquinolin-8-yl)thiophene-2-carboxamide] | C′ (C′ represents an increase no greater than 20%) |  | A (A represents a value greater than 50% cell rescue) | EC50 (CSM14.1 cells): < 20 µM |
| Cc1ccc2cccc(NC(=O)c3cc(Br)c(Br)s3)c2n1 [Compound G7, 4,5-Dibromo-N-(2-methylquinolin-8-yl)thiophene-2-carboxamide] | A′ (A′ represents an increase greater than 50%) |  | A (A represents a value greater than 50% cell rescue) | EC50 (CSM14.1 cells): < 20 µM |
